The subject of test [1] is Human immunodeficiency virus type 1 reverse transcriptase (Human immunodeficiency virus 1), Q72547 [P236L]. The experiment in a line: In vitro inhibition of mutant P236L reverse transcriptase at a concentration of 10 uM.
Test [2] concerns the target Human immunodeficiency virus type 1 reverse transcriptase (Human immunodeficiency virus 1) (UniProt Q72547). The experiment in a line: In vitro inhibition of wild type resistant reverse transcriptase at a concentration of 1 uM.
Test [3] has the same target. The experiment in a line: In vitro inhibition of wild type resistant reverse transcriptase at a concentration of 10 uM.
The subject of test [4] is Human immunodeficiency virus type 1 reverse transcriptase (Human immunodeficiency virus 1), Q72547 [P236L]. Briefly: In vitro Inhibition of mutant P236L reverse transcriptase at a concentration of 50 uM.
Test [5] has the same test system. The experiment in a line: In vitro inhibition of mutant P236L reverse transcriptase at a concentration of 1 uM.
Test [6] has as its target Human immunodeficiency virus type 1 reverse transcriptase (Human immunodeficiency virus 1) (UniProt Q72547). The experiment in a line: In vitro inhibition of wild type resistant reverse transcriptase at a concentration of 50 uM.
Test [7] concerns the target Human immunodeficiency virus type 1 reverse transcriptase (Human immunodeficiency virus 1, UniProt Q72547). Briefly: In vitro ability to inhibit wild type resistant (WT) reverse transcriptase.
Test [8] concerns the target Human immunodeficiency virus type 1 reverse transcriptase (Human immunodeficiency virus 1, UniProt Q72547, P236L). The experiment in a line: In vitro ability to inhibit mutant P236L reverse transcriptase.
The nature of test [9]: Effective dose for inhibition of viral replication in cell culture […]. Type of test: functional. Particulars: read-out: ED50 (the source's name).
Test [10] in a line: Cytotoxic concentration was determined. Format: functional.

Counter-ions that a name gives are not always drawn.

The values that follow come from ChEMBL document CHEMBL1133713, “Novel 1,5-diphenylpyrazole nonnucleoside HIV-1 reverse transcriptase inhibitors with enhanced activity versus the delavirdine-resistant P236L mutant: lead identification and SAR of 3- and 4-substituted derivatives” (J Med Chem, 2000).

Take `Cc1nn(-c2ccccc2)c(-c2ccccc2)c1C`: the inhibition amounted to 3% in [1]; 0% in test [2]; 0% in [3]; 36% in [4]; 0% in test [5]; 0% in [6].
For the compound `CC#Cc1c(C)nn(-c2ccccc2)c1-c1ccccc1`, the IC50 in test [7] was 13400 nM; in [8], 1540 nM. Besides, the inhibition in test [1] was determined as 80%; in test [2], 0%; in [3], 37%; in [4] it was 93%; in test [5], 38%; in [6], 72%.
Consider `CC(C)Nc1cccnc1N1CCN(C(=O)c2cc3cc(NS(C)(=O)=O)ccc3[nH]2)CC1` [DELAVIRDINE MESYLATE], for which the EC50 in test [9] was determined as 0.1 nM. The CC50 in test [10] is more than 10000 nM.
In the case of `COCc1c(C)nn(-c2ccccc2)c1-c1ccccc1`, the inhibition in [1] is 18%; in test [2], 0%; in test [3] it was 0%; in test [4] it was 50%; in test [5], 0%; in test [6] it was 14%.
Regarding `CCc1c(C)nn(-c2ccccc2)c1-c1ccccc1`, the values for the IC50 in test [7] and in test [8] were 14500 nM and 520 nM, respectively. The inhibition turned out to be 81% in test [1]; 1% in [2]; 42% in test [3]; 94% in test [4]; 50% in test [5]; 67% in [6].
For the compound `Cc1nn(-c2ccccc2)c(-c2ccccc2)c1C(=O)O`, the inhibition in test [1] came out at 1%; in test [2], 4%; in test [3], 0%; in [4] it was 4%; in [5], 0%; in test [6], 1%.
In the case of `Cc1nn(-c2ccccc2)c(-c2ccccc2)c1C(C)C`, the inhibition in [1] was 8%; in test [2], 0%; in test [3], 18%; in [4], 13%; in test [5], 0%; in test [6], 6%.
For the compound `CCCc1c(C)nn(-c2ccccc2)c1-c1ccccc1`, the inhibition in test [1] came to 56%; in [2], 14%; in test [3], 31%; in test [4], 71%; in test [5] it was 4%; in test [6], 49%.
On to `CCc1c(CC(=O)O)nn(-c2ccccc2)c1-c1ccccc1`, for which the inhibition stood at 13% in [1]; 0% in test [2]; 0% in test [3]; 14% in test [4]; 0% in [5]; 0% in [6].
As for `Cc1nn(-c2ccccc2)c(-c2ccccc2)c1CC#N`, the IC50 worked out at 2310 nM in test [7] and 1140 nM in test [8]. For the same compound, the inhibition was found to be 77% in test [1]; 37% in test [2]; 71% in test [3]; 93% in test [4]; 47% in test [5]; 90% in test [6]. Also, the EC50 in [9] was determined as 100 nM. In test [10], this compound registered a CC50 of more than 10000 nM.
In the case of `Cc1nn(-c2ccccc2)c(-c2ccccc2)c1CC(N)=O`, the inhibition in test [1] is 0%; in test [2], 11%; in [3], 36%; in test [4], 29%; in [5] it was 0%; in test [6] it was 48%.
As to `CNC(=O)c1c(C)nn(-c2ccccc2)c1-c1ccccc1`, the inhibition in [1] turned out to be 0%; in test [2] it was 5%; in test [3], 7%; in test [4], 0%; in test [5] it was 15%; in test [6], 3%.
Regarding `C/N=C(/S)c1c(C)nn(-c2ccccc2)c1-c1ccccc1`, the inhibition in test [1], in [2], in test [3], in test [4], in test [5] and in test [6] was 0% in each case.
On to `CCc1c(CCOC)nn(-c2ccccc2)c1-c1ccccc1`, for which the inhibition in test [1] worked out at 47%; in test [2], 22%; in test [3] it was 29%; in test [4], 71%; in test [5] it was 15%; in test [6] it was 33%.
For the compound `CCc1cc(NCc2nc3c(Cl)ccc(Cl)c3o2)c(O)nc1C` [L-697661], the EC50 in test [9] is less than 0.1 nM. This compound displayed a CC50 in [10] of more than 10000 nM.
Take `CCc1c(CC(=O)OC)nn(-c2ccccc2)c1-c1ccccc1`: the inhibition turned out to be 41% in test [1]; 5% in test [2]; 20% in test [3]; 55% in test [4]; 21% in test [5]; 34% in test [6].
For `CCc1c(CC(N)=O)nn(-c2ccccc2)c1-c1ccccc1`, the inhibition in test [1] was determined as 29%; in test [2], 12%; in test [3], 18%; in test [4], 52%; in test [5], 16%; in test [6], 39%.
`Cc1ccnc2c1NC(=O)c1cccnc1N2C1CC1` [NEVIRAPINE]: the EC50 in test [9] was 10 nM. The compound also came in with a CC50 in test [10] of more than 10000 nM.
With `CCc1c(CC#N)nn(-c2ccccc2)c1-c1ccccc1`, the inhibition in test [1] was determined as 46%; in [2], 2%; in test [3], 15%; in [4], 72%; in test [5], 14%; in test [6], 39%.
With `Cc1nn(-c2ccccc2)c(-c2ccccc2)c1CCO`, the inhibition in test [1] turned out to be 8%; in test [2], 0%; in test [3] it was 0%; in [4] it was 28%; in [5], 12%; in test [6] it was 0%.
Turning to `Cc1nn(-c2ccccc2)c(-c2ccccc2)c1CC(=O)O`, the inhibition worked out at 0% in test [1]; 0% in test [2]; 0% in test [3]; 0% in [4]; 0% in test [5]; 3% in test [6].
As for `CCc1c(CC(=O)NC)nn(-c2ccccc2)c1-c1ccccc1`, the inhibition in test [1] was determined as 8%; in test [2], 1%; in test [3], 3%; in test [4], 12%; in [5], 6%; in test [6], 7%.
Consider `CCc1c(CCO)nn(-c2ccccc2)c1-c1ccccc1`, for which the IC50 is more than 50000 nM in test [7] and 650 nM in [8]. Moreover, the inhibition in test [1] was determined as 84%; in test [2], 0%; in test [3], 18%; in test [4], 95%; in test [5] it was 58%; in [6], 42%.
Consider `C=Cc1c(C)nn(-c2ccccc2)c1-c1ccccc1`, for which the inhibition in test [1] came out at 26%; in [2] it was 3.6%; in test [3], 10%; in [4] it was 59%; in test [5] it was 21%; in [6] it was 18%.
